Test results: patent publication US20230416329A1, “A PEPTIDE WITH DISULFIDE BONDS AND INHIBITORY ACTIVITY AGAINST SERINE PROTEASES, DERIVED HYBRID PEPTIDES THEREOF, AND USES THEREOF” (INSTITUTE OF MATERIA MEDICA , CHINESE ACADEMY OF MEDICAL …, priority 2020, published 2023)
Values belong to the compound of their own block, whether it stands above or below them. Bridge positions count the residues as written; N and C are the ends. Square brackets hold non-standard residues; d marks the D form. Peptide text beside a SMILES is read from it. Hyp = O=C(O)[C@@H]1C[C@@H](O)CN1

Tests used:
[1] = target: DPP-IV (Homo sapiens, UniProt P27487); experiment: Tolerance of GLP-1 and its analogues to DPP-IV (RP-HPLC remaining peak area); type: in vitro ADME; settings: peptide 25 μM, DPP-IV 0.5 ng/μL, 37° C.
Chain of DPP-IV (P27487 whole entry, species assumed): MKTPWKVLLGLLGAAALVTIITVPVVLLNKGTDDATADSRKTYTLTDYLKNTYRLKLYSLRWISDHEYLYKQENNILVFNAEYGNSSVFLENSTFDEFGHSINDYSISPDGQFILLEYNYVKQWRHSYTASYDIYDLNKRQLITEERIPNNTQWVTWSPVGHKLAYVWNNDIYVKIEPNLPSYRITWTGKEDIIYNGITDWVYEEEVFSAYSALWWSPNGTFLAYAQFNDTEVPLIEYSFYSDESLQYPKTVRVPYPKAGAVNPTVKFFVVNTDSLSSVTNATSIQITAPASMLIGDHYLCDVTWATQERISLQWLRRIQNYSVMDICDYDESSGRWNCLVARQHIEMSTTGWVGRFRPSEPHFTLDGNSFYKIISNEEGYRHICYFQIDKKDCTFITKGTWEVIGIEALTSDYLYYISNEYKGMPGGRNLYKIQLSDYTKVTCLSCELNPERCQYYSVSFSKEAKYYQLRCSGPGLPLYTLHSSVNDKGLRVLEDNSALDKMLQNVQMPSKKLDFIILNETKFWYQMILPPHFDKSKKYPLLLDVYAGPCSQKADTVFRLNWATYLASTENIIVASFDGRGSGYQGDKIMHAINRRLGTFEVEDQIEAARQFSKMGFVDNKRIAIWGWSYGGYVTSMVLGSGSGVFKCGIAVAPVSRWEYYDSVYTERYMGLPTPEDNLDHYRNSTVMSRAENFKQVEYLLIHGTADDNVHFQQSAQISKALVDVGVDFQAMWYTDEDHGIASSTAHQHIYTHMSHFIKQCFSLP
Protocol: (§1) Mix by centrifugation at 8000 rpm for 30 seconds.
(2) Arrange a certain volume of 0.005 μg/μL DPP-IV solution in another sterile EP.

[2] = Stability of GLP-1 and its analogues in human serum; settings: 25% (v/v) human serum
[3] = target: chymotrypsin (Bos taurus, UniProt P00766); experiment: in vitro; settings: isolated enzyme chymotrypsin, pH 7.8, Remaining peak area (%)/chymotrypsin
Protocol: FIG. 18. […] At different time point, 25 μL aliquots was taken out, and 10% (v/v) TFA was added to terminate the reaction.
as §1
Arrange a certain volume of 0.05 μg/μL chymotrypsin solution in another sterile EP. Incubate the EP tubes containing peptides and enzymes at 37° C. for 5 min, and add 3 μL of […] solution to each EP tube containing peptides and mix well. Start timing and extract 25 μL of reaction solution at 1.5, 3.0, 4.5, 6.0 and 9.0 min later, respectively. Add 3.75 μL of 10% TFA to terminate the reaction and mix well by centrifugation at 8000 rpm for 30 seconds.
Arrange a certain volume of 0.05 μg/μL chymotrypsin solution in another sterile EP. Incubate the EP tubes containing peptides and enzymes at 37° C. for 5 min, and then add 4.5 μL of chymotrypsin solution to each EP tube containing peptides and mix well. Start timing and extract 25 μL of reaction solution at 1.5, 3.0, 4.5, 6.0, 9.0, 15.0, 30.0, and 60.0 min later, respectively. Add 3.75 μL of 10% TFA to terminate the reaction and mix well by centrifugation at 8000 rpm for 30 seconds.
Referring to the experimental method in Example 5, in vitro stability of salmon Calcitonin analogs with oral administration activity to the enzymatic hydrolysis by trypsin, chymotrypsin and elastase were performed.
Referring to the experimental method in Example 5, in vitro stability of IL-17A inhibitory peptides towards the enzymatic hydrolysis by trypsin, chymotrypsin and elastase were performed.

[4] = target: porcine pancreatic elastase (Sus scrofa, UniProt P00772); experiment: Elastase inhibitory activity of peptides (AAApNA hydrolysis; IC50, Ki, residual activity); type: biochemical; settings: for IC50: elastase 0.5 μM, AAApNA 1 mM; for Ki: read-out: Ki
Chain of porcine pancreatic elastase (P00772 27-266): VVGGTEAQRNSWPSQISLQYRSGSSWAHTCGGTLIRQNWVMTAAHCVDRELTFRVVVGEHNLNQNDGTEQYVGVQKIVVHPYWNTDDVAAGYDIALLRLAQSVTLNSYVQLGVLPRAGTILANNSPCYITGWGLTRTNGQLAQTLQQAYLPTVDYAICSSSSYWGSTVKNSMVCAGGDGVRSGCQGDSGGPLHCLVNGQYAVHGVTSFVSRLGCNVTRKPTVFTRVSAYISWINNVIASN
Summary of the method: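 Porcine pancreatic elastase, 0.5 μM final, was preincubated with peptide for 10 min at 37° C in 20 mM CaCl2, 50 mM Tris-HCl pH 8.0. AAApNA (1 mM final) was then added for 60 min and A405 read. Residual activity gave IC50, converted to Ki via IC50/(1+S/Km) using measured Km.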

Remaining peak area (%)/human serum ([2]; 0.0 h, peptide 0.03 mM, 37° C.): 100.0 ± 0.0% | remaining at 0.5 h, 0.03 mM ([2]; human, pH 7): 72.3 ± 0.5% | remaining at 2 h, 0.03 mM ([2]; human, pH 7): 34 ± 0.2% | remaining at 4 h, 0.03 mM ([2]; human, pH 7): 16.6 ± 0.8% | remaining at 8 h, 0.03 mM ([2]; human, pH 7): 4.4 ± 0.2% | remaining at 12 h, 0.03 mM ([2]; human, pH 7): 1.8 ± 0.1% | remaining at 0.025 h, 60 μM [3]: 84.9 ± 1.6% | remaining at 0.05 h, 60 μM [3]: 89.6 ± 4.2% | remaining at 0.075 h, 60 μM [3]: 83.6 ± 0.5% | remaining at 0.1 h, 60 μM [3]: 86.2 ± 0.7% | remaining at 0.15 h, 60 μM [3]: 81.1 ± 4.7% | remaining at 0.25 h, 60 μM [3]: 83.3 ± 1.4% | remaining at 0.5 h, 60 μM [3]: 84.5 ± 3.7% | remaining at 1 h, 60 μM [3]: 78.6 ± 2%
SMILES: CC[C@H](C)[C@H](NC(=O)[C@H](Cc1ccccc1)NC(=O)[C@H](CCC(=O)O)NC(=O)[C@H](CCCCN)NC(=O)[C@H](C)NC(=O)[C@H](C)NC(=O)[C@H](CCC(N)=O)NC(=O)CNC(=O)[C@H](CCC(=O)O)NC(=O)[C@H](CC(C)C)NC(=O)[C@H](Cc1ccc(O)cc1)NC(=O)[C@H](CO)NC(=O)[C@H](CO)NC(=O)[C@@H](NC(=O)[C@H](CC(=O)O)NC(=O)[C@H](CO)NC(=O)[C@@H](NC(=O)[C@H](Cc1ccccc1)NC(=O)[C@@H](NC(=O)CNC(=O)[C@H](CCC(=O)O)NC(=O)[C@H](C)NC(=O)[C@H](Cc1c[nH]cn1)NC(=O)CNC(=O)CNC(=O)[C@@H](NC(=O)[C@@H]1CCCN1C(=O)[C@@H](NC(=O)CNC(=O)CNC(=O)[C@H](Cc1ccc(O)cc1)NC(=O)[C@@H]1CSSC[C@H](NC(=O)[C@@H](N)CO)C(=O)N[C@@H]([C@@H](C)O)C(=O)N[C@@H](Cc2ccc(O)cc2)C(=O)N[C@@H](CO)C(=O)N[C@@H]([C@@H](C)CC)C(=O)N2CCC[C@H]2C(=O)N2CCC[C@H]2C(=O)N[C@@H](CCC(N)=O)C(=O)N1)[C@@H](C)CC)[C@@H](C)CC)[C@@H](C)O)[C@@H](C)O)C(C)C)C(=O)N[C@@H](C)C(=O)N[C@@H](Cc1c[nH]c2ccccc12)C(=O)N[C@@H](CC(C)C)C(=O)N[C@H](C(=O)N[C@@H](CCCCN)C(=O)NCC(=O)N[C@@H](CCCNC(=N)N)C(=O)NCC(=O)NCC(=O)N[C@@H](CCCCN)C(=O)O)C(C)C [CH4-D-GLP-1]
Remaining peak area (%)/DPP-IV ([1]; 0.0 h): 100.0 ± 0.0% | remaining at 0.5 h, 25 μM ([1]; isolated DPP-IV enzyme in buffer, pH 8, 0.5 h): 88.5 ± 0.7% | remaining at 2 h, 25 μM ([1]; isolated DPP-IV enzyme in buffer, pH 8, 2.0 h): 90 ± 0.9% | remaining at 4 h, 25 μM ([1]; isolated DPP-IV enzyme in buffer, pH 8, 4.0 h): 92.4 ± 0.5% | remaining at 8 h, 25 μM ([1]; isolated DPP-IV enzyme in buffer, pH 8, 8.0 h): 85.1 ± 0.9% | remaining at 12 h, 25 μM ([1]; isolated DPP-IV enzyme in buffer, pH 8, 12.0 h): 88.6 ± 3.7%

IC50 [4]: > 50000 nM
SMILES: CC[C@H](C)[C@@H]1NC(=O)CNC(=O)[C@@H](N)CSSC[C@@H](C(=O)N[C@@H](CCC(N)=O)C(=O)O)NC(=O)[C@H]([C@@H](C)CC)NC(=O)[C@@H]2CCCN2C(=O)[C@@H]2CCCN2C(=O)[C@H]([C@@H](C)CC)NC(=O)[C@H](CO)NC(=O)[C@H](C)NC(=O)[C@H]([C@@H](C)O)NC(=O)[C@H](CCC(N)=O)NC1=O [EC39] (H-CGIQTASIPPICQ-OH; disulfide 1-12)

IC50 [4]: > 50000 nM
SMILES: CC[C@H](C)[C@@H]1NC(=O)CNC(=O)[C@@H](N)CSSC[C@@H](C(=O)N[C@@H](CCC(N)=O)C(=O)O)NC(=O)[C@H]([C@@H](C)CC)NC(=O)[C@@H]2CCCN2C(=O)[C@@H]2CCCN2C(=O)[C@H]([C@@H](C)CC)NC(=O)[C@H](CO)NC(=O)[C@H](C)NC(=O)[C@H]([C@@H](C)O)NC(=O)[C@H](Cc2c[nH]cn2)NC1=O [EC40] (H-CGIHTASIPPICQ-OH; disulfide 1-12)

IC50 [4]: > 50000 nM
SMILES: CC[C@H](C)[C@@H]1NC(=O)CNC(=O)[C@@H](N)CSSC[C@@H](C(=O)N[C@@H](CCC(N)=O)C(=O)O)NC(=O)[C@H]([C@@H](C)CC)NC(=O)[C@@H]2CCCN2C(=O)[C@@H]2CCCN2C(=O)[C@H]([C@@H](C)CC)NC(=O)[C@H](CO)NC(=O)[C@H](C)NC(=O)[C@H]([C@@H](C)O)NC(=O)[C@H](CCCCN)NC1=O [EC42] (H-CGIKTASIPPICQ-OH; disulfide 1-12)

IC50 [4]: > 50000 nM
SMILES: CC[C@H](C)[C@@H]1NC(=O)[C@@H]2CCCN2C(=O)[C@@H](N)CSSC[C@@H](C(=O)N[C@@H](CCC(N)=O)C(=O)O)NC(=O)[C@H]([C@@H](C)CC)NC(=O)[C@@H]2CCCN2C(=O)[C@@H]2CCCN2C(=O)[C@H]([C@@H](C)CC)NC(=O)[C@H](CO)NC(=O)[C@H](C)NC(=O)[C@H]([C@@H](C)O)NC(=O)[C@H](C)NC1=O [EC44] (H-CPIATASIPPICQ-OH; disulfide 1-12)

IC50 [4]: > 50000 nM
SMILES: CC[C@H](C)[C@@H]1NC(=O)[C@@H]2C[C@@H](O)CN2C(=O)[C@@H](N)CSSC[C@@H](C(=O)N[C@@H](CCC(N)=O)C(=O)O)NC(=O)[C@H]([C@@H](C)CC)NC(=O)[C@@H]2CCCN2C(=O)[C@@H]2CCCN2C(=O)[C@H]([C@@H](C)CC)NC(=O)[C@H](CO)NC(=O)[C@H](C)NC(=O)[C@H]([C@@H](C)O)NC(=O)[C@H](C)NC1=O [EC46] (H-C[Hyp]IATASIPPICQ-OH; disulfide 1-12)

IC50 [4]: 400 nM | Ki [4]: 110 nM
SMILES: CC[C@H](C)[C@H](N)C(=O)N[C@H]1CSSC[C@@H](C(=O)N[C@@H](CCC(N)=O)C(=O)O)NC(=O)[C@H]([C@@H](C)CC)NC(=O)[C@@H]2CCCN2C(=O)[C@@H]2C[C@@H](O)CN2C(=O)[C@H]([C@@H](C)CC)NC(=O)[C@H](CO)NC(=O)[C@H](C)NC(=O)[C@H]([C@@H](C)O)NC1=O [EC47, Ile-Cys-Thr-Ala-Ser-Ile-Hyp-Pro-Ile-Cys-Gln] (H-ICTASI[Hyp]PICQ-OH; disulfide 2-10; C-terminus assumed)

Ki [4]: 280 nM
SMILES: CC[C@H](C)[C@@H]1NC(=O)[C@H](CO)NC(=O)[C@H](C)NC(=O)[C@H]([C@@H](C)O)NC(=O)[C@@H](NC(=O)[C@H](CC(C)C)NC(=O)CNC(=O)CNC(=O)[C@@H](NC(=O)[C@@H]2CCCN2C(=O)[C@@H]2CCCN2C(=O)[C@@H](NC(=O)[C@H](CC(=O)O)NC(=O)[C@H](C)NC(=O)CNC(=O)[C@@H](N)CCC(N)=O)[C@@H](C)O)C(C)C)CSSC[C@@H](C(=O)N[C@@H](Cc2ccc(O)cc2)C(=O)O)NC(=O)[C@H](CCC(N)=O)NC(=O)[C@@H]2CCCN2C(=O)[C@@H]2CCCN2C1=O [EC49] (H-QGADTPPVGGLCTASIPPQCY-OH; disulfide 12-20; N-terminus and C-terminus assumed)

Ki [4]: 280 nM
SMILES: CC[C@H](C)[C@@H]1NC(=O)[C@H](CO)NC(=O)[C@H](C)NC(=O)[C@H]([C@@H](C)O)NC(=O)[C@@H](NC(=O)[C@H](CC(C)C)NC(=O)CNC(=O)CNC(=O)[C@H](CC(=O)O)NC(=O)[C@H](CCC(=O)O)NC(=O)[C@@H](NC(=O)[C@H](C)NC(=O)[C@H](CC(N)=O)NC(=O)CNC(=O)[C@H](CC(N)=O)NC(=O)[C@@H](N)CO)C(C)C)CSSC[C@@H](C(=O)N[C@@H](Cc2ccc(O)cc2)C(=O)O)NC(=O)[C@H](CCC(N)=O)NC(=O)[C@@H]2CCCN2C(=O)[C@@H]2CCCN2C1=O [EC50] (H-SNGNAVEDGGLCTASIPPQCY-OH; disulfide 12-20; N-terminus and C-terminus assumed)
